Data on one substance can be found in US20070254864A1, “CHROMIUM COMPLEXES” (Mandrillus Pharma, LLC, priority 2006, published 2007).

The subject of the test is db/db mice (BKS.Cg-m+/+Lepr^db/J). Description: In vivo efficacy: control of body mass in db/db mice. The note with it: five week old at start, ad libitum p.o. in drinking water (5 mM chromium, pH 5.8), on average 1 mg/kg/day, over 22 weeks, control mice receiving water reached 43 g. On the procedure:
The mice were otherwise fed normal chow. Over the course of 22 weeks, the mice consumed on average 1 mg/kg/day of the compound. Mice on treatment reached an average mass of 37 g, while control mice receiving water reached an average mass of 43 g.

In the case of Chromium Quinolinate [Example 1], the average mass reached worked out at 37 g.
